Measured values: publication PMC2229644 (The Journal of General Physiology, 1999)

How the values were obtained:
potassium channels = conditions: cited from earlier work
[1] = test system: MaxiK-channel (large conductance Ca-activated K channel); conditions: cited from earlier work
[2] = target: Shaker H4 Δ(6-46) K channel (inactivation-removed, Shaker IR) (Drosophila melanogaster, UniProt P08510, DEL6-46); assay type: cell-based
[3] = test system: Shaker K channel, inactivation-removed; conditions: cited from earlier work

Sequence of Shaker H4 Δ(6-46) K channel (inactivation-removed, Shaker IR) (P08510 1-655 with tags or gaps DEL6-46): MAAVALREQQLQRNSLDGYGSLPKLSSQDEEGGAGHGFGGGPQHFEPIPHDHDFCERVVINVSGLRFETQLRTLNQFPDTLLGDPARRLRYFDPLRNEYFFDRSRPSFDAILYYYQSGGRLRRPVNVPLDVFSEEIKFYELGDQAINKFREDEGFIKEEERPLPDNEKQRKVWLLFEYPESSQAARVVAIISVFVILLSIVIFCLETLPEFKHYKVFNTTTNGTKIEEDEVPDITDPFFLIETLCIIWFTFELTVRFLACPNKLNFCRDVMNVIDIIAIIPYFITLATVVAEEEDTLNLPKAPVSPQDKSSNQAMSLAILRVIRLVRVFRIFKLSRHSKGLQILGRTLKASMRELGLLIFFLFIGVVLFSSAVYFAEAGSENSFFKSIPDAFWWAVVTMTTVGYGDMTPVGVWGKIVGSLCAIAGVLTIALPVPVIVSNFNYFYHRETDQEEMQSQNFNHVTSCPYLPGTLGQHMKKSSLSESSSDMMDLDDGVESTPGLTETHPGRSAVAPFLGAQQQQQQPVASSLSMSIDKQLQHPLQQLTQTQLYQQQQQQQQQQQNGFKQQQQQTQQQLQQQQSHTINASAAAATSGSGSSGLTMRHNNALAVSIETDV

Substance	association rate constant, k on (potassium channels)	effective valence zδ in absence of internally present permeant cations [1]	effect on apparent association rate of κ-PVIIA [2]	effect on dissociation rate of κ-PVIIA [2]	underestimation of κ-PVIIA k on by 1 mM TEA^+ [2]	effect of external TEA^+ on extent of κ-PVIIA blockade [3]	effect of TEA^+ on CTX association and dissociation rates [1]
charybdotoxin [CTX]	6.1e+07 M⁻¹ s⁻¹	zδ vanishes					
tetraethylammonium [TEA^+]			decreases the apparent association rate	little effect on the dissociation rate	~10%	reduces the extent of the blockade	only reduces the association rate of CTX
